The results in this text go back to patent US6743795B1, “3-nitropyridine derivaives and the pharmaceutical compositions containing said derivatives” (Dong Wha Pharm. Ind. Co. Ltd., priority 1999, dated 2004).

For one series, the target named is T1, HBV polymerase (Hepatitis B virus genotype A2 subtype adw2, UniProt P03159).
T1 construct: made in house; host or cells: E. coli
As to the kind of experiment: In vitro reverse transcription activity of HBV polymerase (ELISA-type, DIG/biotin nucleotides). Format: biochemical. The settings on record: for inhibition at 0.01 µg/mL / inhibition at 0.1 µg/mL / inhibition at 1 µg/mL: read-out: Inhibition activity on HBV-RT (%). As for the experimental part: <Experiment 1> Inhibitory Effect on the In Vitro Activities of HBV Polymerase in Reverse Transcription
The following in vitro experiment was performed to determine the effect of the compounds of formula 1 on the activity of HBV polymerase during reverse transcription.
The present inventors submitted application for a patent concerning HBV polymerase genetically expressed in and separated from E.coli, the process of its preparation, and the method to measure the enzyme activities (KR 94-3918, KR 96-33998). In the present experiments HBV polymerase was used which had been expressed in E. coli as stated above.
The method used in the present invention to measure in vitro reverse transcribing activities of HBV polymerase is as follows. Basic principles are the same as for ELISA. Nucleotides with biotin or digoxigenin group attached are included as substrates and anti-DIG antibodies attached to peroxidase enzyme recognize the polymerized substrates.
To the wells coated with streptavidin, 20 μl of HBV polymerase, 20 μl of reaction mixture (10 μM each of DIG-UTP and Biotin-UTP, 46 mM Tris-HCl, 266 mM KCl, 27.5 mM MgCl2, 9.2 mM DTT substrate/primer nybrid), and 20 μl of test compound (added to 1, 0.1, and 0.01 μg/ml) were added and allowed to react at 22° C. for 15 hrs. During this reaction, HBV polymerase catalyzes DNA synthesis and digoxigenin and biotin attached to nucleotides form bonds with streptavidin coated on the bottom of wells. When the reaction was done, each well was washed with 250 μl of cleaning buffer (pH 7.0) for 30 seconds, which was repeated five times to remove remaining impurities. 200 μl of anti-DIG-POD antibody was added to each well and allowed to react for 1 hr at 37° C., and the wells were washed with cleaning buffer to remove impurities. 200 μl each of ABTS™, a substrate of peroxidase, was then added and allowed to react at room temperature for 30 min. Absorbance was measured at 405 nm using ELISA reader.
The percentage of reduction in HBV polymerase activities for reverse transcription was calculated using the group without test compound as a control and the results are shown in Table 3.

The subject of another series is HBV. As to the kind of experiment: Proliferation of HBV in HBV producing cell line HepG 2.2.15 (competitive PCR of culture supernatant). To be noted: HepG 2.2.15, one week; for inhibition at 0.1 µg/mL / inhibition at 1 µg/mL / inhibition at 0.01 µg/mL: Hepatitis B virus, HepG2.2.15, 168 h, read-out: Inhibitory effect on the HBV proliferation: Inhibition activity on HBV-RT (%). It is filed as cell-based, Hepatitis B virus. As for the experimental part:
<Experiment 2> Inhibitory Effect on the Proliferation of HBV in HBV Producing Cell Line
The following experiment was performed to determine inhibitory effects of compounds of formula 1 on the proliferation of HBV producing cell line.
To test for antiviral effect, replication and proliferation of HBV were measured in HepG 2.2.15, a human liver cancer cell line.
The cell concentration was adjusted to 1×10^5 cells/ml and 1 ml was added to each well of a 24-well cell culture plate, which was then kept in a culture box for 3-4 days at 37° C. under 5% CO2 until cells grew sufficiently, changing culture medium everyday. When the cells matured sufficiently, the test compounds were added to the final concentrations of 0.01, 0.1, and 1 μg/ml. One week after the addition of test compounds, the culture solution was centrifuged at 5,000 rpm for 10 min. 25 μl of supernatant was transferred to a new tube and 5 μl of lysis solution [0.54N NaOH, 0.06% NP40] was added to each tube. After keeping the tube at 37° C. for 1 hr, 30 μl of neutralizing solution [0.09N HCl 0.1MTris-HCl, pH7.4] was added as a reaction solution for competitive polymerase chain reaction (PCR).
PCR was performed using genetic sequence of HBV core protein as a matrix. PCR reaction was carried out by adding 1 unit of Taq polymerase enzyme to 25 pmol of each primer, 250 μM dNTP, 5 μl of PCR reaction solution [0.54N NaOH, 0. 06% NP40, 0.09N HCl, 0.1M Tris-HCl, pH 7.4].
DNA polymerized by PCR was electrophoresed on Agarose gel and quantitatively analyzed using an image analyzer (Gel Doc 1000, Bio-Rad) in order to evaluate the effect of compounds of the present invention on the reduction of HBV proliferation.
3TC (lamivudine) was used as a positive control at the same concentrations as those of the test compounds. The percentage of reduction in HBV proliferation was calculated using the group without test compound as a control and the results are represented in Table 4.

Series [1] can be described thus: Cytotoxicity test on HepG2 cells (MTT). It is filed as cell-based. To be noted: human; HepG2 cells, MTT; read-out: Cytotoxicity on HepG2, IC50 (50% Inhibitory Concentration). The text has this: (§1) <Experiment 4> Cytotoxicity Test
The test system of the next series is HepG2 cells. The series can be described thus: Cytotoxicity test on HepG2 cells (MTT). It is filed as cell-based.
Source text: as §1

Series [2] concerns the target T2, HIV reverse transcriptase (Human immunodeficiency virus type 1 group M subtype B, UniProt P03366).
T2 construct: purchased Boehringer Mannheim
As to the kind of experiment: In vitro HIV reverse transcriptase activity (non-radioactive RT assay kit). It is filed as biochemical. Here is the method: <Experiment 3> Inhibitory Effect on the In Vitro HIV Enzyme Activities in Reverse Transcription
The following in vitro experiments were done to determine the effect of compounds of formula 1 on the reduction of HIV enzyme activities in reverse transcription.
Non-radioactive reverse transcriptase assay kit (Boehringer Mannheim) was used in the measurement of in vitro transcriptase activities. 20 μl (40 ng) of HIV transcriptase and 20 μl of reaction mixture containing matrix-primer hybrid poly(A)oligo(dT)15, DIG(digoxigenin)-dUTP, biotin-dUTP, and TTP were added to wells coated with streptavidin. Test compounds were also added at the final concentrations of 0.1 and 1 μg/ml and allowed to react at 37° C. for 1 hr. At this time, DNA is formed from RNA by the action of HIV reverse transcriptase, forming bonds with streptavidin coated on the bottom of wells because of digoxigenin and biotin moieties attached to nucleotides.
When the reaction was completed, each well was washed with 250 μl of cleaning buffer (pH7.0) for 30sec. five times to remove remaining impurities. 200 μl of anti-DIG-POD […] was added to each well, allowed to react at 37° C. for 1 hr and washed as above to remove impurities. 200 μl of ABTS™, a substrate for peroxidase, was added to each well and allowed to react at room temperature for 30 min. Absorbance at 405 nm was then read for each solution using ELISA reader and used for quantitative determination of inhibitory effect on the HIV transcriptase activities. The percentage of reduction in the activities of HIV reverse transcriptase was calculated using the group without test compound as control and the results are represented in Table 5.

Where two headings read alike, the source gives them in different places. Bounds are passed on as bounds.

T1 sequence (P03159 whole entry): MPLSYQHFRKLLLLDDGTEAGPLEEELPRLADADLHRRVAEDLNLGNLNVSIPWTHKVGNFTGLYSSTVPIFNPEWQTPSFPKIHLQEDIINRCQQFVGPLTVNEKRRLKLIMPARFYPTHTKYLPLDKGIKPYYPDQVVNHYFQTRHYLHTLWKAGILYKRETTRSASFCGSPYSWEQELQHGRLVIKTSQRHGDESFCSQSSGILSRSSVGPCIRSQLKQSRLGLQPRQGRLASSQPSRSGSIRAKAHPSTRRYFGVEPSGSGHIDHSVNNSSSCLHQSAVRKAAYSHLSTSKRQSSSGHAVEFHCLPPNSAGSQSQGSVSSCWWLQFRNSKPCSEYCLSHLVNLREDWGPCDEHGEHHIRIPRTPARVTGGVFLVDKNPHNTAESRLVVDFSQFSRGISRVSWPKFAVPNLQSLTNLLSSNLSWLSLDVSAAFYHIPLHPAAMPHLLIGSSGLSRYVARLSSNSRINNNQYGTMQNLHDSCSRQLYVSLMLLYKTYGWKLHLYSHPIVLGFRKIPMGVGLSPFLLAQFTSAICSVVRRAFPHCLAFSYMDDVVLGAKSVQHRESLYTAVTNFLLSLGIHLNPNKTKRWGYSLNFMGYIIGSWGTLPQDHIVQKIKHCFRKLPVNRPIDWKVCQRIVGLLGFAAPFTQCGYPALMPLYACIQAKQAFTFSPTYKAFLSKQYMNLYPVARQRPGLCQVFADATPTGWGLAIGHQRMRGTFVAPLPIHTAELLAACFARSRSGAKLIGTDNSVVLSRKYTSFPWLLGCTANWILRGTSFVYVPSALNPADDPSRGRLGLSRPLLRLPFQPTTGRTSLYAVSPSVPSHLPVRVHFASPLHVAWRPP

As to `COc1ccc([N+](=O)[O-])c(Nc2ccc3cn[nH]c3c2)n1` [Example 2, 2-(1H-6-indazolylamino)-6-methoxy-3-nitropyridine], the inhibition at 0.01 µg/mL on HBV polymerase (0.01 μg/ml test compound) amounted to 12%. Besides, the inhibition at 0.1 µg/mL at HBV polymerase (0.1 μg/ml test compound) is 50%; in the series on HBV (0.1 μg/ml) it was 40%. Besides, the inhibition at 1 µg/mL on HBV polymerase (1 μg/ml test compound) is 76%; with HBV (1 μg/ml), 72%. Besides, in series [1], the IC50 was greater than 100 µg/mL. In the series with HepG2 cells (HepG2 cells, MTT), the “Cytotoxicity on HepG2, MCD (Minimal Cytotoxic Concentration)” value (“Cytotoxicity on HepG2, MCD” below) was 100 µg/mL.

Turning to “6-ethyl-(2-hydroxyethyl)amino-2-(1H-5-indazolylamino)-3-nitropyridine [Example 11]”, the results for the “Inhibition activity on HBV-RT (%)” value on HBV polymerase (0.01 μg/ml test compound), at HBV polymerase (0.1 μg/ml test compound) and on HBV polymerase (1 μg/ml test compound) were 35%, 60% and 85%, respectively. In addition, the results for the “Inhibitory effect on the HBV proliferation: Inhibition activity on HBV-RT (%)” value in the series with HBV (0.01 μg/ml), in the series on HBV (0.1 μg/ml) and in the series with HBV (1 μg/ml) were 20%, 45% and 83%, respectively. Besides, the “Inhibitory effect on the activities of HIV reverse transcriptase: Inhibition activity on HIV-RT (%)” value (from here on “Inhibitory effect on the activities … (%)”) in series [2] (0.1 μg/ml test compound) was 46%; in series [2] (1 μg/ml test compound) it was 67%. The “Cytotoxicity on HepG2, IC50 (50% Inhibitory Concentration)” value in the series with HepG2 cells was greater than 100 µg/mL. Further, in the series on HepG2 cells, the “Cytotoxicity on HepG2, MCD” value came out at 100 µg/mL.

One may read the melting point as the temperature of the solid-liquid transition. On to `O=[N+]([O-])c1ccc(NCc2cccnc2)nc1Nc1ccc2cn[nH]c2c1` [Example 20, 2-(1H-6-indazolylamino)-3-nitro-6-(3-pyridyl)methylaminopyridine], for which the melting point was greater than 270 °C. Moreover, the inhibition at 0.01 µg/mL at HBV polymerase (0.01 μg/ml test compound) turned out to be 21%. The inhibition at 0.1 µg/mL on HBV polymerase (0.1 μg/ml test compound) is 40%. At HBV polymerase (1 μg/ml test compound), the inhibition at 1 µg/mL turned out to be 66%. For the same compound, the “Inhibitory effect on the activities … (%)” value in series [2] (0.1 μg/ml test compound) came to 53%. Further, the “Inhibitory effect on the activities … (%)” value in series [2] (1 μg/ml test compound) was determined as 84%.

On to `O=[N+]([O-])c1ccc(NN2CCOCC2)nc1Nc1ccc2[nH]ncc2c1` [Example 30, 2-(1H-5-indazolylamino)-6-(4-morpholinyl)amino-3-nitropyridine], for which the melting point was greater than 270 °C. The inhibition at 0.01 µg/mL at HBV polymerase (0.01 μg/ml test compound) was 32%. For the same compound, the inhibition at 0.1 µg/mL on HBV polymerase (0.1 μg/ml test compound) amounted to 49%. Besides, the inhibition at 1 µg/mL at HBV polymerase (1 μg/ml test compound) worked out at 71%.

Take `CC(C)Nc1ccc([N+](=O)[O-])c(Nc2ccc3cn[nH]c3c2)n1` [Example 6, 2-(1H-6-indazolylamino)-6-isopropyl amino-3-nitropyridine]: the “Inhibition activity on HBV-RT (%)” value on HBV polymerase (0.01 μg/ml test compound) is 49%; on HBV polymerase (0.1 μg/ml test compound), 76%; on HBV polymerase (1 μg/ml test compound), 91%. The “Inhibitory effect on the HBV proliferation: Inhibition activity on HBV-RT (%)” value in the series on HBV (0.01 μg/ml) is on record as 33%; in the series on HBV (0.1 μg/ml), 72%; with HBV (1 μg/ml) it was 90%. Also, the results for the “Inhibitory effect on the activities … (%)” value in series [2] (0.1 μg/ml test compound) and in series [2] (1 μg/ml test compound) were 50% and 69%, respectively. Further, the “Cytotoxicity on HepG2, IC50 (50% Inhibitory Concentration)” value with HepG2 cells (HepG2 cells, MTT) was greater than 100 µg/mL. Further, the “Cytotoxicity on HepG2, MCD” value in the series with HepG2 cells (HepG2 cells, MTT) came out at 100 µg/mL.

For the compound `O=[N+]([O-])c1ccc(NC(CO)CO)nc1Nc1ccc2[nH]ncc2c1` [Example 14, 6-[bis(hydroxymethyl)methylamino)-2-(1H-5-indazolylamino)-3-nitropyridine], the melting point is greater than 270 °C. Moreover, the inhibition at 0.01 µg/mL on HBV polymerase (0.01 μg/ml test compound) amounted to 30%. Further, the inhibition at 0.1 µg/mL at HBV polymerase (0.1 μg/ml test compound) was found to be 49%. Also, on HBV polymerase (1 μg/ml test compound), the inhibition at 1 µg/mL is 85%. In addition, the inhibition at 0.01 µg/mL in the series with HBV (0.01 μg/ml) was 22%. The inhibition at 0.1 µg/mL in the series with HBV (0.1 μg/ml) was determined as 41%. Besides, the inhibition at 1 µg/mL in the series on HBV (1 μg/ml) turned out to be 80%. The “Inhibitory effect on the activities … (%)” value in series [2] (0.1 μg/ml test compound) is listed as 44%. Also, the “Inhibitory effect on the activities … (%)” value in series [2] (1 μg/ml test compound) turned out to be 59%.

`C[C@@H](CCO)Nc1ccc([N+](=O)[O-])c(Nc2ccc3[nH]ncc3c2)n1` [Example 12, 6-[(1S)-1-(hydroxyethyl)ethylamino]-2-(1H-5-indazolylamino)-3-nitropyridine]: the melting point is greater than 270 °C. Besides, the inhibition at 0.01 µg/mL on HBV polymerase (0.01 μg/ml test compound) was determined as 38%. The inhibition at 0.1 µg/mL at HBV polymerase (0.1 μg/ml test compound) amounted to 56%. Besides, at HBV polymerase (1 μg/ml test compound), the inhibition at 1 µg/mL came to 90%. Moreover, the inhibition at 0.01 µg/mL in the series on HBV (0.01 μg/ml) came to 29%. The inhibition at 0.1 µg/mL with HBV (0.1 μg/ml) was determined as 48%. Further, the inhibition at 1 µg/mL with HBV (1 μg/ml) was 85%. Besides, in series [2] (0.1 μg/ml test compound), the “Inhibitory effect on the activities … (%)” value is listed as 40%. The “Inhibitory effect on the activities … (%)” value in series [2] (1 μg/ml test compound) was 64%.

Turning to `O=[N+]([O-])c1ccc(N2CCNCC2)nc1Nc1ccc2[nH]ncc2c1` [Example 23, 2-(1H-5-indazolylamino)-3-nitro-6-(1-piperazinyl)pyridine], the melting point was 270 °C (dec.). Besides, the inhibition at 0.01 µg/mL on HBV polymerase (0.01 μg/ml test compound) came out at 51%. Also, the inhibition at 0.1 µg/mL on HBV polymerase (0.1 μg/ml test compound) is 66%. Moreover, at HBV polymerase (1 μg/ml test compound), the inhibition at 1 µg/mL turned out to be 96%. Further, in the series on HBV (0.01 μg/ml), the inhibition at 0.01 µg/mL was determined as 35%. Further, the inhibition at 0.1 µg/mL with HBV (0.1 μg/ml) was found to be 55%. Further, the inhibition at 1 µg/mL in the series with HBV (1 μg/ml) was 92%.
